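All cell lines were grown in 96-well plates and treated with compound for 48 hours. Here, GI50 denotes the concentration required for 50% inhibition of growth. At the TGI there is no net growth.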
Key:
Assay in all cases: growth of human tumour cells (NCI), 48 h
A498 renal = tested on: A498 renal
BT-549 breast = tested on: BT-549 breast
CCRF-CEM leukemia = tested on: CCRF-CEM leukemia
COLO 205 colon = tested on: COLO 205 colon
HS 578T breast = tested on: HS 578T breast
MOLT-4 leukemia = tested on: MOLT-4 leukemia
SK-OV-3 ovarian = tested on: SK-OV-3 ovarian
SNB-19 CNS = tested on: SNB-19 CNS
T-47D breast = tested on: T-47D breast
TK-10 renal = tested on: TK-10 renal

Compound	GI50 (A498 renal)	TGI (A498 renal)	GI50 (BT-549 breast)	TGI (BT-549 breast)	GI50 (CCRF-CEM leukemia)	TGI (CCRF-CEM leukemia)	GI50 (COLO 205 colon)	TGI (COLO 205 colon)	GI50 (HS 578T breast)	TGI (HS 578T breast)	GI50 (MOLT-4 leukemia)	TGI (MOLT-4 leukemia)	GI50 (SK-OV-3 ovarian)	TGI (SK-OV-3 ovarian)	GI50 (SNB-19 CNS)	TGI (SNB-19 CNS)	GI50 (T-47D breast)	TGI (T-47D breast)	GI50 (TK-10 renal)	TGI (TK-10 renal)
C[C@@H]1CCC2[C@@H](C)[C@@H](OCC(CO[C@H]3OC4O[C@@]5(C)CC[C@H]6[C@H](C)CCC([C@H]3C)[C@@]46OO5)OC(=O)CCC(=O)O)OC3O[C@@]4(C)CC[C@@H]1[C@]32OO4 (stereo not given in full)	13.8 µM	31.3 µM	3.74 µM	29.4 µM	< 0.0279 µM	> 47.3 µM	< 0.01 µM	12.5 µM	1.81 µM	34.9 µM	0.537 µM	> 48.7 µM	27.2 µM	> 100 µM	10.1 µM	23.1 µM	< 0.01 µM	> 100 µM	< 0.046 µM	29.5 µM
Nc1ncnc2n[nH]c(Nc3ccc(F)cc3)c12	8.33 µM	92.8 µM	56.7 µM	> 100 µM	18.4 µM	72.4 µM	17.3 µM	66.1 µM	20.6 µM	> 100 µM	31.7 µM	> 100 µM	6.93 µM	> 100 µM	61.7 µM	> 100 µM	21.1 µM	> 100 µM	25.4 µM	> 100 µM
C=C1NC(=O)C(C(C)CC)NC(=O)C2CSCC(NC(=O)CCC(=O)O)C(=O)NC(Cc3ccccc3)C(=O)NC(C)C(=O)NC(CC(C)CC)C(=O)NC(C(=O)NC(Cc3ccccc3)C(=O)N3CCCC3C(=O)N2)C(C)OC(=O)C(CO)NC(=O)C(C(O)COC)N(C)C(=O)C(C(C)C)NC(=O)C(CC(C)CC)NC1=O (stereo not given)	0.00667 µM	0.512 µM	0.0728 µM	> 6 µM	0.0137 µM	> 6 µM	0.0129 µM	0.0557 µM	0.0115 µM	> 6 µM	0.0552 µM	> 6 µM	0.0243 µM	> 6 µM	0.0255 µM	> 6 µM	0.0242 µM	> 6 µM	0.95 µM	> 6 µM
C=C1C(=O)O[C@H]2[C@H]1CC/C(COC(=O)c1c[nH]c3ccccc13)=C\CC[C@@]1(C)O[C@@H]21	0.267 µM	1.03 µM	0.175 µM	0.414 µM	0.058 µM	0.972 µM	0.244 µM	0.663 µM	0.613 µM	6.83 µM	0.282 µM	1.45 µM	2.24 µM	5.59 µM	1.3 µM	2.91 µM	0.401 µM	2.26 µM	0.28 µM	0.736 µM
